Laboratory results reported in PubChem BioAssay (NCI).
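Assay format: 96-well plates, 48-hour exposure. Here, GI50 denotes the concentration required for 50% inhibition of growth. TGI is the concentration that stops growth completely.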

Experiments:
Experiment in all cases: NCI anticancer screen, dose series, 48 h
[1] = test system: HCT-15 colon
[2] = test system: MDA-MB-231 breast
[3] = test system: OVCAR-8 ovarian
[4] = test system: K-562 leukemia
[5] = test system: HCC-2998 colon
[6] = test system: SN12C renal
[7] = test system: HOP-62 NSCLC
[8] = test system: CCRF-CEM leukemia
[9] = test system: OVCAR-5 ovarian
[10] = test system: EKVX NSCLC
[11] = test system: SR leukemia
[12] = test system: COLO 205 colon
[13] = test system: NCI/ADR-RES ovarian
[14] = test system: LOX IMVI melanoma
[15] = test system: HS 578T breast
[16] = test system: MCF7 breast
[17] = test system: KM12 colon
[18] = test system: OVCAR-4 ovarian
[19] = test system: SF-268 CNS
[20] = test system: T-47D breast
[21] = test system: MDA-MB-435
[22] = test system: OVCAR-3 ovarian
[23] = test system: UACC-257 melanoma
[24] = test system: HOP-92 NSCLC
[25] = test system: SNB-19 CNS
[26] = test system: NCI-H226 lung
[27] = test system: SK-OV-3 ovarian
[28] = test system: SF-295 CNS
[29] = test system: RPMI-8226 leukemia

COC1=CC(c2ccc[nH]2)=N/C1=C\c1[nH]c(C)c(C(=O)CCCCC(=O)NCc2ccccc2)c1C was tested, and the GI50 [1] was 845 nM, the TGI [1] was 2250 nM and the GI50 [2] was 1610 nM. For the same compound, the TGI [2] was 7.56 µM, the GI50 [3] was 5.85 µM and the TGI [3] was 23.3 µM. The GI50 [4] was 1730 nM, the TGI [4] was 4.72 µM and the GI50 [5] was 3.16 µM. For the same compound, the TGI [5] was 12.2 µM, the GI50 [6] was 3.82 µM and the TGI [6] was 18.4 µM. It also gave a GI50 [7] of 2870 nM, a TGI [7] of 10.2 µM and a GI50 [8] of 673 nM. For the same compound, the TGI [8] was 6.98 µM, the GI50 [9] was 7.18 µM and the TGI [9] was 21.3 µM. For the same compound, the GI50 [10] was 4.2 µM, the TGI [10] was 18.1 µM and the GI50 [11] was 1140 nM. It also gave a TGI [11] of 3.3 µM, a GI50 [12] of 2370 nM and a GI50 [13] of 2170 nM. The TGI [13] was 5.36 µM, the GI50 [14] was 1430 nM and the TGI [14] was 2770 nM. The GI50 [15] was 1980 nM, the TGI [15] was 4.43 µM and the GI50 [16] was 1600 nM. The TGI [16] was 3.44 µM, the GI50 [17] was 1380 nM and the TGI [17] was 3.02 µM. For the same compound, the GI50 [18] was 6.31 µM, the TGI [18] was 23.4 µM and the GI50 [19] was 1820 nM. The TGI [19] was 6.04 µM, the GI50 [20] was 2340 nM and the TGI [20] was 7.23 µM. For the same compound, the GI50 [21] was 1610 nM, the TGI [21] was 3.72 µM and the GI50 [22] was 1430 nM. It also gave a TGI [22] of 2890 nM, a GI50 [23] of 18.6 µM and a TGI [23] of 38.5 µM. For the same compound, the GI50 [24] was 1650 nM, the TGI [24] was 4.63 µM and the GI50 [25] was 8.76 µM. For the same compound, the TGI [25] was 24 µM, the GI50 [26] was 2730 nM and the TGI [26] was 10.9 µM. It also gave a GI50 [27] of 14.8 µM, a TGI [27] of 31.1 µM and a GI50 [28] of 1870 nM. For the same compound, the TGI [28] was 7.23 µM and the GI50 [29] was 2560 nM.
